Test results reported in paper PMC11312813, “An Optimized Peptide Antagonist of CXCR4 Limits Survival of BCR–ABL1-Transformed Cells in Philadelphia-Chromosome-Positive B-Cell Acute Lymphoblastic Leukemia” (International Journal of Molecular Sciences, 2024).
Structures can show the parent of a compound that is named as a salt.

Tests used:
[1] = test system: TKO-EV cells (untransformed mouse BM pro-B cells); experiment: Real-time cell growth analysis by IncuCyte, untransformed TKO-EV cells; details: 1, 5 and 10 µM, 96 h; n = 3
Protocol: A flat-bottom 96-well plate was coated with 0.01% poly-L ornithine (#P4957, Sigma-Aldrich, Hamburg, Germany) for 1 h at room temperature (RT). BCR–ABL1, SupB15, and 697 cells were counted as 0.5 × 10^5 cells/well, while TKO-BCR–ABL1 and TKO-EV cells as 1 × 10^5 cells/well, which were labeled with IncuCyte Cytotox Red dye (#4632, Sartorius, Ulm, Germany) as per the manufacturer’s protocol. The cells were plated in 100 μL complete medium. […] Plate was prewarmed at 37 °C for 30 min prior to placing in the IncuCyte chamber. Scanning was conducted every two hours for total of 4 days. Images were acquired using a 20X objective in phase contrast and fluorescence mode at 4 images/well and analyzed using the cell-by-cell analysis module of IncuCyte software version 2020B (Essen Bioscience, Ann Arbor, MI, USA).

[2] = test system: CXCR4; experiment: CXCL12-driven calcium flux in SupB15 cells; type: cell-based; details: 1 µM, 10 min pre-treatment, 100 ng/mL human CXCL12; n = 3
Protocol: Ca^2+ signaling was analyzed as described previously. Briefly, SupB15 and 697 cells were collected at 1 × 10^6 cells/treatment and loaded with calcium-sensitive dye Indo-1 AM (#I1223, Invitrogen) and 0.5 mg/mL of pluronic F-127 (#P3000MP, Invitrogen) in their respective media supplemented with 1% FBS at 37 °C for 45 min. Cells were then washed and treated with the inhibitors for 10 min at 37 °C. Baseline signal for calcium was measured for 30 s via flow cytometry, followed by stimulation with 100 ng/mL human CXCL12. The area under the curve (AUC) of each calcium flux plot was determined using FlowJo. The AUC of the water control (solvent for CXCL12) was subtracted from each treatment to obtain the correct estimation of the calcium signal upon CXCL12 stimulation.

[3] = test system: JNK1/2 phosphorylation; experiment: Western blot, basal JNK1/2 phosphorylation in BCR–ABL1 cells; type: cell-based, mouse; details: 10 µM, no CXCL12, 5 min; n = 3
Protocol: BCR–ABL1 cells were collected as 5 × 10^6 cells/500 μL complete media and treated either with DMSO or different inhibitors in the absence and presence of 100 ng/mL mouse CXCL12 for 5, 15, and 30 min at 37 °C. Cells were then immediately transferred onto ice to stop the reaction and washed with ice-cold PBS. […] For each treatment, 15 μL of cell extract was mixed with 5 μL of 4X Laemmli buffer (reducing), boiled at 95 °C for 10 min, and run on 10% SDS-PAGE. Gels were wet-transferred to PVDF membranes (Millipore, Burlington, MA, USA) and stained with 0.1% ponceau-S solution to check for efficient blotting. The membranes were blocked with 3% BSA solution and incubated with primary antibodies at 4 °C overnight. The next day, primary antibodies were washed, and membranes were probed with horseradish peroxidase (HRP)-conjugated secondary antibodies at RT for 2 h. After washing, the blots were developed using Immobilon ECL Ultra Western HRP Substrate (#WBULS0500, Millipore), and images were acquired with a Fusion SL gel imaging system (Vilber Lourmat, Eberhardzell, Germany).

[4] = test system: BCR–ABL1-transformed mouse B cells; experiment: Cell proliferation assay (cell trace dye dilution); type: cell-based; details: 10 µM, 48 and 72 h; n = 3
Protocol: BCR–ABL1 cells were collected at 0.5 × 10^5 cells/well of a 96-well plate and labeled with cell trace far red cell proliferation dye (#C34564, Invitrogen, Dreieich, Germany), according to the manufacturer’s instructions. Labeled cells were plated in 100 μL of complete media and were mixed with equal volume of 2X DMSO or inhibitor-containing media. A small part of the labeled cells was measured in FACS to determine the fluorescence signal on day 0. After specific time periods (48 and 72 h), cells were collected, washed with FACS buffer, and analyzed using LSR-Fortessa (BD Bioscience).

[5] = test system: SupB15 cells; experiment: Real-time cell growth by IncuCyte, SupB15; type: cell-based, human; details: 10 µM, 96 h; n = 3
Protocol: (§1) The cells were plated in 100 μL complete medium.

[6] = test system: 697 cells; experiment: Flow cytometric cell survival analysis, 697; type: cell-based, human; details: 10 µM; n = 3
Protocol: Cells treated with either solvent control DMSO or different concentrations of inhibitors for different time points were collected and washed with ice-cold PBS. Cells were then stained with efluor 450-labeled fixable viability dye (FVD, #65-0863-14, eBioscience, San Diego, CA, USA) at 1:1000 dilution at 4 °C or using 50 μg/mL propidium iodide (PI, #P3566, Thermo Fisher, Dreieich, Germany) solution at RT for 15 min in the dark. After washing, labeled cells were resuspended in 100 μL of PBS and acquired using LSR-Fortessa (BD Bioscience, Heidelberg, Germany). FACS data were analyzed with FlowJo software version 10.0.

[7] = test system: 697 cells; experiment: Real-time cell growth by IncuCyte, 697; type: cell-based, human; details: 10 µM, 96 h; n = 3
Protocol: as §1

[8] = test system: Imatinib-resistant Ph+ ALL primary xenograft cells; experiment: Real-time cell growth by IncuCyte, primary Ph+ ALL xenograft cells; type: cell-based, human; details: 10 µM, 6 days; n = 2
Protocol: Animals showing clinical symptoms of leukemia or with >75% leukemic blasts in blood were sacrificed, and total splenic cells were isolated and frozen for future use.
For Ph^+ ALL cells isolated from the xenografted NSG mice, frozen cells were thawed and cultured in MEM-alpha (Gibco) media supplemented with 20% FBS and 100 units/mL of penicillin/streptomycin for 5–16 h in a 5% CO2 incubator. Next, the cells were overlaid on 10 mL Ficoll-Paque™PLUS (#17144003, Cytiva, Freiburg, Germany) in 50 mL tubes and centrifuged at 400 g without break for 10 min at RT. The cells were collected from the interface of Ficoll and media and washed once with PBS. Viable cells were counted and plated into previously coated 48-well plates at 4.25 × 10^5 cells/well in 250 μL of media with or without the inhibitors. Scanning was conducted every two hours for total of 6 days in phase contrast mode and analyzed using the cell-by-cell analysis module of IncuCyte software version 2020B (Essen Bioscience).

[9] = test system: WT mouse BM-derived B cells; experiment: Real-time cell growth, normal WT mouse BM-derived B cells; type: cell-based; details: 10 µM JM#170, 10 µM AMD3100, 1 µM Imatinib; 96 h; n = 2
Protocol: as §1

Row | Compound | Survival/growth of TKO-EV cells [1] | CXCL12-induced calcium flux, SupB15 [2] | Basal JNK phosphorylation vs DMSO [3] | Proliferation of BCR–ABL1 cells (dye dilution) vs DMSO [4] | SupB15 cell growth vs DMSO [5] | 697 cell survival vs DMSO [6] | 697 cell growth vs DMSO [7] | Growth of Ph+ ALL xenograft cells vs DMSO [8] | Growth of normal WT mouse BM-derived B cells [9]
1 | c1cc(CN2CCCNCCNCCCNCC2)ccc1CN1CCCNCCNCCCNCC1 [AMD3100, AMD3100 octahydrochloride hydrate, reference compound] | neither JM#170 nor AMD3100 had any effect | completely blocked the calcium flux | such upregulation was not observed | significantly reduced the proliferation | – | – | – | – | –
2 | ILRWSRK * (Pal)-NH2 [JM#170, lipid-conjugated truncated version of EPI-X4, CXCR4 antagonist] | – | completely blocked the calcium flux | transiently upregulated basal JNK phosphorylation | no effect on proliferation | significantly reduced SupB15 cell growth | no effect on the survival of these cells | no effect on the 697 cells | significant growth inhibitory effect | remained inactive against the WT B cells
